According to PMC8949075, “Evaluation of Two Novel Hydantoin Derivatives Using Reconstructed Human Skin Model Episkin^TM: Perspectives for Application as Potential Sunscreen Agents” (Molecules, 2022):

How the values were obtained:
CHO-K1 cells = assay: In vitro micronucleus assay; format: cell-based, Chinese hamster; settings: for DB (dicentric bridges) / MN (micronuclei) / NB (nuclear buds): count in 1000 binucleated cells per slide; for effect on MN, DB, NB and NDI: 1, 5 and 10 µM
Description: The CHO-K1 cells were seeded in 6-well plates at a density of 1 × 10^6 cells/well and incubated overnight at 37 °C, 5% CO2 atmosphere. […] The test compounds and 4MBC were dissolved in DMSO (solvent, final concentration 0.1%) and ethanol (co-solvent, final concentration 1%). After 24 h of treatment, the medium was removed, and the cells were rinsed with PBS. Then, fresh medium containing cytochalasin B (CytB; Sigma Aldrich, Darmstadt, Germany) (4.5 µg/mL) was added and incubation was continued for the next 24 h.
After the incubation period, the cells were washed with fresh medium, detached by trypsinization, and centrifuged. The supernatant was discarded and 5 mL of 1% ice-cold sodium citrate (Chempur, Piekary Śląskie, Poland) was added to the cell pellet, which was then gently resuspended. After 15 s, 5 mL of freshly prepared fixative solution (methanol/acetic acid, 3:1) and 4 drops of formaldehyde were added. The cell suspension was centrifuged (5 min, 1000 rpm), the supernatant was discarded again, and the pellet was fixed in fixative mixture two more times, without formaldehyde. After the third fixation, part of the supernatant was removed, and around 1 mL of the supernatant was retained to resuspend the cells. The suspension was then dripped onto clean, previously frozen, glass slides to dry. After air-drying, the slides were stained with Giemsa dye (1:20 in phosphate buffer) for 5 min [56, 78, 79].
One thousand binucleated cells per slide with intact nuclei of equal size, similar pattern of cytoplasm staining, intact membrane, and distinguishable from adjacent cells, without apoptotic and necrotic cells were analyzed. Only the micronuclei with the same morphology and color of the main nuclei, with 1/16 to 1/3 of the major nucleus diameter, unrefringent and not overlapping or connected to the main nuclei were counted. Moreover, the presence of dicentric bridges (DB) and nuclear buds (NB) in the binucleated cells was analyzed. The nuclear division index (NDI) was calculated using the following formula: [(1 × MOC) + (2 × BC) + (3 × MUC)]/N, where MOC is the number of mononuclear cells, BC is the number of binuclear cells, MUC represents the number of multinuclear cells, and N is the total number of scored cells. The micronucleus incidence was presented as a number of micronuclei per 1000 examined binuclear cells. The experiment was conducted two times with three repetitions for each condition.

[1] = Episkin skin permeation test (finite dose, OECD 428); format: in vitro ADME, human; settings: human; 24 h exposure, 10 mg/cm^2 finite dose, 2% formulation; read-out: recovery in the epidermis (of the applied dose)
Description: (§1) The MM was provided by the manufacturer.
(§2) The receptor fluid composition was based on the pilot experiments.
(§3) The formulations of the test compounds (JH3 and JH10) and commercial UV filters were applied onto the skin surface in the donor compartment in a net dose of 10 mg/cm^2 (finite dose application) using disposable flexible loops. To quantify the dose of the formulation applied on the top of the Episkin^TM model, the loops were weighed, filled with approximately 11 mg of formulation, and then reweighed. The difference in weight was used as the amount of formulation applied. Commercial UV filters such as BP3, 4MBC, and AVO were used as reference standards. The filters were obtained from Sigma-Aldrich, Darmstadt, Germany.
(§4) The plate with tissues was embedded with parafilm and incubated at specific time points at 32 °C. As the passive diffusion of chemicals (and therefore their skin absorption) is affected by temperature, the diffusion chamber and skin were maintained at a constant temperature close to normal skin temperature of 32 ± 1 °C [19, 23, 30, 32]. At fixed time points (0, 1, 2, 3, 4, 5, 6, and 24 h), aliquots of the receptor fluid (0.5 mL) were collected from the receptor compartment and immediately replaced with fresh fluid. After 24 h the entire receptor fluid was collected, and the skin surface was washed thoroughly with cotton buds impregnated in methanol (5 times). The tissues were removed from the inserts and both the donor and receptor compartments were washed separately with methanol. The samples were stored at −20 °C until chemical analysis.
(§5) All samples were spiked with 25 µL of pentoxifylline (PTX, Sigma-Aldrich, Darmstadt, Germany) (final concentration of 20 µM) used as an internal standard prior to extraction. The samples were analyzed using ultra high-pressure liquid chromatography coupled with mass spectrometry (UHPLC/MS; Waters Corporation, Milford, MA, USA). Quantification was based on peak area and calculated from standard calibration curves of the compound adjusted by the internal standard area. The assay was in agreement with the Organization for Economic Co-operation and Development (OECD) guideline 428 [19].

[2] = test system: Episkin^TM reconstructed human epidermis; assay: as above; format: in vitro ADME; settings: for absorbed amount detected in the RF (of the applied dose) / amount remaining on the surface of the Episkin: 24 h exposure, 10 mg/cm^2 finite dose
Description: as §1, §2, §3, §4, §5

[3] = test system: MCF-7 breast cancer model; design: method as in PMID 31238526; settings: cited from earlier work
[4] = Relative lipophilicity by reversed-phase thin-layer chromatography; format: physicochemical; settings: RP-TLC, RP-18 plates, methanol/phosphate buffer pH 7.4, extrapolated to 0% methanol
Description: The experimental log P was determined by reversed-phase thin-layer chromatography (RP-TLC). TLC was carried out on plates precoated with silica gel RP-18 F254 (Merck, Darmstadt, Germany). The mobile phases used were the mixtures of methanol (commercially available material of reagent grade) and 100 mM potassium–phosphate buffer (pH = 7.4), with the methanol content ranging from 95 to 65% (v/v) in 5% increments. A total of 10 μL of test compound solutions in methanol (1 mg/mL) were spotted on the plates. The plates were developed in chromatographic chambers previously saturated with solvent for 1 h. After development (at room temperature in a normal chamber: 22 × 22 × 7 cm) and the drying of the plates, the spots were observed under a UV lamp (λ = 254 nm). The Rf values were mean values from two independent chromatographic runs. The experimental Rf was converted into the RM value according to the following equation [66]: RM = log (1/Rf − 1). The calculated values were extrapolated for a 0% methanol concentration (RM0) using the equation: RM = RM0 + bC, where C is the concentration (%, v/v) of methanol in the mobile phase and b is the regression term.

Compound | NDI (nuclear division index) (CHO-K1 cells; 1 µM) | DB (dicentric bridges) (CHO-K1 cells; 1 µM) | MN (micronuclei) (CHO-K1 cells; 1 µM) | NB (nuclear buds) (CHO-K1 cells; 1 µM) | NDI (nuclear division index) (CHO-K1 cells; 5 µM) | DB (dicentric bridges) (CHO-K1 cells; 5 µM) | MN (micronuclei) (CHO-K1 cells; 5 µM) | NB (nuclear buds) (CHO-K1 cells; 5 µM) | NDI (nuclear division index) (CHO-K1 cells; 10 µM) | DB (dicentric bridges) (CHO-K1 cells; 10 µM) | MN (micronuclei) (CHO-K1 cells; 10 µM) | NB (nuclear buds) (CHO-K1 cells; 10 µM) | effect on MN, DB, NB and NDI (CHO-K1 cells) | recovery at 24 h, 2 % in formulation [1] [%] | absorbed amount detected in the RF (of the applied dose) ([2]; 2% formulation) [%] | amount remaining on the surface of the Episkin ([2]; 2% formulation) [%] | estrogenic activity [3] | relative lipophilicity value (RM0) [4] | other results
CCOC(=O)CN1C(=O)/C(=C/C=C/c2ccc(OC)cc2)N(CC(=O)OCC)C1=O [JH3, diethyl 2,2′-((Z)-4-((E)-3-(4-methoxyphenyl)allylidene)-2,5-dioxoimidazolidine-1,3-diyl)diacetate] | 1.45 | 3.8 | 10.1 ± 3.3 | 3.6 | 1.40 | 4.1 | 10.5 ± 3.9 | 3.5 | 1.32 | 3.6 | 12.0 ± 4.2 | 5.4 | did not significantly alter any of the evaluated parameters | 3 | 1 | 95 | no estrogenic activity | 3.22 | detectable amount in RF, fold lower than that of JH10 ([2]; after 24 h exposure): about 28 fold; detection in the receptor fluid over time ([2]; sampling 0-6 and 24 h, 2% formulation, 10 mg/cm^2): undetectable in the RF in the first six hours
CCOC(=O)CN1C(=O)/C(=C/c2ccc(OC)cc2)N(CC(=O)OCC)C1=O [JH10, diethyl 2,2′-((Z)-4-(4-methoxybenzylidene)-2,5-dioxoimidazolidine-1,3-diyl)diacetate] | 1.31 | 3.5 | 9.0 ± 3.9 | 4.3 | 1.38 | 3.8 | 11.2 ± 3.6 | 5.2 | 1.47 | 3.5 | 9.5 ± 3.7 | 3.2 | did not significantly alter any of the evaluated parameters | 7 | 48 | 45 | no estrogenic activity | 2.46 | amount in the receptor fluid (RF) ([2]; after the first hour of exposure, 2% formulation, 10 mg/cm^2): 1 µg/cm^2
